Measurements taken from patent US20220054494A1, “METHODS FOR TREATING BLADDER AND URETHRA DYSFUNCTION AND DISEASE” (University of Pittsburgh - Of the Commonwealth System of …, priority 2019, published 2022).
Entries after “also recorded” stand apart in the source; their conditions may differ.

What was measured:
Assay type in all cases: in vivo, rat
cleaved PARP = assay: Western immunoblotting, cleaved PARP; conditions: aged rats; oral 8-AG 5 mg/kg/day, 6 weeks
Experimental: (§1) Western immunoblotting: One half of each bladder preparation was homogenized using Lysing Matrix D in a FastPrep 24 instrument (MP Biomedicals, Solon, Ohio) in HBSS (5 mM KCl, 0.3 mM KH2PO4, 138 mM NaCl, 4 mM NaHO3, 0.3 mM Na2HCO3, 0.3 mM Na2HPO4, 5.6 mM glucose and 10 mM Hepes, pH 7.4) containing complete protease inhibitor cocktail (1 tablet/10 ml, ROCHE®, Indianapolis, Ind.)) and phosphatase inhibitor cocktail (SIGMA®, 1:100). After centrifugation (13000 rpm; 15 min at 4° C.), the membrane protein fraction was prepared by suspending the membrane pellets in lysis buffer containing 0.3 M NaCl, 50 mM Tris-HCl (pH 7.6) and 0.5% Triton X-100 and the same concentration of protease inhibitors as above. The suspensions were incubated on ice and centrifuged (13000 rpm; 15 min at 4° C.). The protein concentrations of the combined supernatants were determined using the PIERCE® BCA protein assay (THERMO SCIENTIFIC®, Rockford, Ill.). After denaturation (100° C. for 5 min) in the presence of Laemmli sample buffer, lysate from each sample was separated on a 4-15% TGX Stain-Free SDS-PAGE gel (BIO-RAD® Laboratories, Hercules, Calif.). As a loading control, total protein per sample was determined using Bio-Rad® Stain Free SDS-PAGE gel technology. UV-activated protein fluorescence was imaged on a CHEMIDOC® MP (BIO-RAD®). […] The volume (intensity) of each protein species was determined and normalized to total protein using Image Lab software (BIO-RAD®).

[1] = test system: bladder wall collagen fibers; assay: Planar biaxial mechanical testing coupled with multiphoton microscopy of bladder wall; conditions: aged rats
Experimental: Protocol 3: Planar biaxial mechanical testing coupled with multiphoton microscopy was performed on bladder wall specimens to assess bladder mechanical function while simultaneously observing changes in the collagen microstructure. Briefly, the unloaded intact bladder diameter (do) and meridional length (hv) were measured and used to calculate the unloaded bladder volume (V0) from the ellipsoid volume, V0=πd0^2h0/6. The intact bladders were then cut open longitudinally and trimmed into 6±1 mm×6±1 mm square specimens for mechanical testing with sides aligned in the in situ longitudinal and circumferential directions. Samples were then positioned in the custom-designed biaxial testing system and mechanically tested using fiducial markers on the sample to calculate stretch, defined as the ratio of distance between markers in sample when loaded and unloaded. A multiphoton microscope (OLYMPUS® FV1000 MPE) equipped with a Coherent Cheleon TiSapphire pulsed Laser was used to image the undulated (wavy) collagen fibers in the mounted samples without staining or fixation during loading (i.e., stretch) as per previously published methods. Stacks of 2D planar images were generated by imaging sequentially across the wall thickness. To avoid tissue damage while obtaining a large range of stretch, loading was stopped at the stretch where collagen fibers were visibly straightened (heretofore termed recruited). This was defined as the maximum stretch. Fiber tortuosity was measured by tracing collagen fibers across the 2D slices (Filament function in Imaris, Bitplane, Switzerland). Fiber arc length (s) and cord length (L) were determined for each fiber tracing and used to calculate the tortuosity. The tortuosity of an undulated or wavy fiber is, therefore, greater than one and approaches one as the fiber becomes fully straightened.
Bi-axial Stretch Combined with Multi-Photon (MPM) Imaging: Planar biaxial mechanical testing coupled with multiphoton microscopy was performed on bladder wall specimens to assess bladder mechanical function while simultaneously observing changes in the collagen microstructure. Briefly, the unloaded intact bladder diameter (do) and meridional length (hv) were measured and used to calculate the unloaded bladder volume (V0) from the ellipsoid volume, V0=πd0^2h0/6. The intact bladders were then cut open longitudinally and trimmed into 6±1 mm×6±1 mm square specimens for mechanical testing with sides aligned in the situ longitudinal and circumferential directions. […] Fiber tortuosity was measured by tracing collagen fibers across the 2D slices (Filament function in Imaris, Bitplane, Switzerland). Fiber arc length (s) and cord length (L) were determined for each fiber tracing and used to calculate the tortuosity. […]

nitrotyrosine = assay: Western immunoblotting, nitrotyrosine; conditions: aged rats; oral 8-AG 5 mg/kg/day, 6 weeks
Experimental: as §1, with “After denaturation (100° C. for 5 min) in the presence of Laemmli sample buffer, lysate from each sample was separated on a 4-15% TGX Stain-Free SDS-PAGE gel (BIO-RAD® Laboratories, Hercules, Calif.).” left out

What does the source list for `Nc1nc2[nH]c(N)nc2c(=O)[nH]1` [8-AG, 8-Aminoguanine]?
EUS cleaved PARP (cleaved PARP): restored to a younger state; cleaved PARP in detrusor smooth muscle (cleaved PARP): levels similar to the younger state; also recorded: restored these biomarkers to that of a younger state; urethral cleaved PARP (cleaved PARP): normalized to a younger state; bladder compliance (stress-stretch curve) ([1]; oral 8-AG 5 mg/kg/day, 6 weeks): more extensible (or compliant) bladder; also recorded: more extensible, compliant bladder; collagen fiber tortuosity in the detrusor layer ([1]; oral 8-AG 5 mg/kg/day, 6 weeks): increased; also recorded: restored fiber tortuosity to that of younger rats; collagen fiber tortuosity in the lamina propria ([1]; oral 8-AG 5 mg/kg/day, 6 weeks): increased; also recorded: Normalizing; also recorded: restored fiber tortuosity to that of younger rats; critical stretch at which the steep increase in bladder stiffness occurs ([1]; oral 8-AG for 1 week and 4 weeks): recovered to levels found in young rats; urethral nitrotyrosine (nitrotyrosine): normalized to a younger state
